Data as given in patent US6855730B2, “3-methylidenyl-2-indolinone modulators of protein kinase” (Sugen, Inc., priority 1998, dated 2005).

Legend:
[1] = molecular target: T1, chimeric receptor containing the EGFR extracellular domain and intracellular HER2 kinase domain (Homo sapiens, UniProt P04626); experiment: EGF Receptor-HER2 chimeric receptor assay in whole cells (ELISA); format: cell-based; details: read-out: HER-2 kinase IC50
T1 construct: fused on or other part: EGFR ectodomain + HER2 intracellular part, ATP-site indolinones: HER2's kinase
T1 sequence (P04626 720-1255 limits assumed, change not shown): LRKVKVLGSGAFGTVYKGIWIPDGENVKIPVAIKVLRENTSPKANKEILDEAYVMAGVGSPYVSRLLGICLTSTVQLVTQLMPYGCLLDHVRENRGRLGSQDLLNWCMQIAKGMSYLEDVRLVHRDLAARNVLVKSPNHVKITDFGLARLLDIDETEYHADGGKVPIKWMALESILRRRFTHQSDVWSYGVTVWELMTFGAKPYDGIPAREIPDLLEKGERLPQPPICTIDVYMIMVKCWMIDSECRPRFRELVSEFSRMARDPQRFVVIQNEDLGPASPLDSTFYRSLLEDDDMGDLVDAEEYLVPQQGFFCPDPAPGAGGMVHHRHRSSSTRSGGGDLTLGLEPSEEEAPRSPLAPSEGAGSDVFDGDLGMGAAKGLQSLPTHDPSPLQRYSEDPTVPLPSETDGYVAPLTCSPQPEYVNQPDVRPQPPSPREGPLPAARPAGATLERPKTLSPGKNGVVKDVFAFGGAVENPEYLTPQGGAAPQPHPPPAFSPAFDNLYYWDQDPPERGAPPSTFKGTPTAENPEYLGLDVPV
Outline: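 NIH3T3 cells overexpressing EGFR-extracellular/HER2-kinase chimera, seeded in 0.5% serum for ~40 h, were pretreated with compound (1% final DMSO) 2 h at 37 °C, then stimulated with 100 nM EGF for 5 min. Lysates captured on anti-EGFR plates; phosphotyrosine detected by anti-Ptyr/HRP ELISA at 410 nm as percent inhibition.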

[2] = test system: A431 cells; experiment: A431 growth assay (2% FBS); format: cell-based; details: Homo sapiens, A-431, read-out: A431 growth (2% FBS) IC50
[3] = test system: SKOV3 cells; experiment: SKOV3 growth assay (2% FBS); format: cell-based; details: Homo sapiens, SK-OV-3, read-out: SKOV3 growth (2% FBS) IC50

Compound	IC50 [1] [µM]	IC50 [2] [µM]	IC50 [3] [µM]	melting point [°C]
CCOC(=O)c1c(C)[nH]c(/C=C2\C(=O)Nc3ccc(Br)cc32)c1CCC(=O)O [Compound 114, 5-(5-Bromo-2-oxo-1,2-dihydroindol-3-ylidenemethyl)-4-(2-carboxyethyl)-2-methyl-1H-pyrrole-3-carboxylic acid ethyl ester]	61.7	–	–	–
Cc1cc(CCC(=O)O)c(/C=C2\C(=O)Nc3ccc(Br)cc32)[nH]1 [Compound 116, 3-[2-(5-Bromo-2-oxo-1,2-dihydroindol-3-ylidenemethyl)-5-methyl-1H-pyrrol-3-yl]-propionic acid]	6.07	–	–	–
COc1c(C(C)C)cc(/C=C2/C(=O)Nc3ccccc32)cc1C(C)C [Example 1, 3-(3,5-Diisopropyl-4-methoxybenzylidene)-1,3-dihydroindol-2-one]	13.8	5.4	5.5	–
COc1c(C(C)C)cc(/C=C2/C(=O)Nc3ccc(Cl)cc32)cc1C(C)C [Example 2, 5-Chloro-3-(3,5-diisopropyl-4-methoxybenzylidene)-1,3-dihydroindol-2-one]	13.7	4.5	4.8	–
COc1ccc2c(c1)NC(=O)/C2=C\c1[nH]c2c(c1CCC(=O)O)CCCC2 [Example 196, 3-[2-(6-Methoxy-2-oxo-1,2-dihydroindol-3-ylidenemethyl)-4,5,6,7-tetrahydro-1H-indol-3-yl]-propionic acid]	–	–	–	263 to 266
